Where a name gives a salt, the structure may show the parent alone.
Tested on: Methicillin-Resistant Staphylococcus aureus (MRSa) ATCC 33592
Assay: Time-kill (rate-of-kill) suspension assay against MRSa
Format: cell-based
Excerpt: Analyzing the efficacy of antimicrobial agents may be performed by various suspension and susceptibility methods. This study is designed to examine the rate-of-kill of a test substance against sponsor selected pure cultures of microorganisms. This is accomplished by exposing the target microorganism(s) to the test substance and inspecting the solution for potential survivors at various time periods. The experimental design in this protocol meets these requirements.
A suspension of bacterial cells is exposed to the test substance for specified contact times. After exposure, an aliquot of the suspension is transferred to a neutralizer and assayed for survivors. Appropriate purity, sterility, microorganism population and neutralization controls are performed.
Using a stock culture of the test organism, a culture of the test organism was struck onto the culture medium listed above. The bacterial cultures were incubated for 24-48 hours at 35-37° C. (alternate incubation may be utilized for certain strains). To produce a suspension containing approximately 1×10^8-1×10^9 CFU/mL, the culture suspension was adjusted with Butterfield's Buffer to yield a suspension matching a 0.5 McFarland turbidity standard.
The test substance to be tested was prepared by transferring a 5.95 mL aliquot of the prepared test substance to a sterile vessel for testing procedures. The test substances were assayed for microbial killing activity within 3 hours of preparation.
A […] aliquot of the standardized inoculum was added to the test substance representing the start of the test exposure (time=0 hr). The inoculated test substance was immediately mixed thoroughly using a laboratory vortex mixer or other applicable method. The inoculated and mixed test substance was held at the specified temperature.
A 1.0 mL aliquot of the inoculated test substance was transferred to 9 mL of neutralizer broth (10× dilution) at each of the times indicated. Four additional 1:10 dilutions in Butterfield's Buffer were also prepared. Using a standard microbiological spread plate count procedure, 1.0 mL aliquots of each dilution (10^−1-10^−4) were plated in duplicate to the appropriate recovery media.
A 5.0 mL aliquot of the neutralized sample (10× dilution) was transferred to a sterile 0.2-0.45 μm filter apparatus system pre-wetted with 10 mL sterile diluent. The sample was filter concentrated and the filter was rinsed using ≧50 mL sterile diluent. The filter was then aseptically removed and placed on the surface of the recovery agar medium to determine the percent MRSa survival.
The bacterial subculture plates were incubated for 48±4 hours at 35-37° C. Subculture plates may be refrigerated at 2-8° C. for ≦3 days prior to examination without affecting the results. Following incubation, the subculture tubes and plates were visually examined for growth. The agar plates were enumerated and recorded. Log and percent reductions will be determined for each time point.
As a control for the viability of the test organism, an equivalent volume of untreated inoculum (0.1 mL) is added to 9.9 mL Butterfield's Buffer (same volume as the test substance). This suspension was neutralized as in the test procedure. The suspension was serially diluted and appropriate dilutions plated using standard microbiological techniques. […] The acceptance criteria for this study control is growth and the value is used for calculation purposes.
Test Data CFU/mL: (avg. # colonies found/plate @ dilution used) (dilution factor) (volume of neutralized solution)/(volume plated) Percent Reduction: [1−(test survivors/test population control)]×100 Log10 Reduction: Log10 (test population control)—Log10 (test survivors) Further details of the microbial time-killing studies can be found in: • 1. American Society for Testing and Materials (ASTM). E2315-03, Guide for Assessment of Microbiocidal Activity Using a Time-Kill Procedure, Volume 11.05, Copyright 2005 ASTM International; and • 2. Food and Drug Administration. […]

[1] = 2 hour exposure, room temperature (20° C.), Agent 4 dissolved in DMSO, tested at 1, 10, and 100 mM
[2] = 4 hour exposure, room temperature (20° C.), Agent 4 dissolved in DMSO, tested at 1, 10, and 100 mM
[3] = 6 hour exposure, room temperature (20° C.), Agent 4 dissolved in DMSO, tested at 1, 10, and 100 mM
[4] = 2 hour exposure, room temperature (20° C.), Agent 1 at 82 mM, Agent 2 at 41 mM, Agent 3 at 47 mM, dihydrochloride
[5] = 4 hour exposure, room temperature (20° C.), Agent 1 at 82 mM, Agent 2 at 41 mM, Agent 3 at 47 mM, dihydrochloride
[6] = 6 hour exposure, room temperature (20° C.), Agent 1 at 82 mM, Agent 2 at 41 mM, Agent 3 at 47 mM, dihydrochloride
[7] = 2 hour exposure, room temperature (20° C.), Agent 1 at 82 mM, Agent 2 at 41 mM, Agent 3 at 47 mM, 1.13×10^6 CFU/mL
[8] = 4 hour exposure, room temperature (20° C.), Agent 1 at 82 mM, Agent 2 at 41 mM, Agent 3 at 47 mM
[9] = 6 hour exposure, room temperature (20° C.), Agent 1 at 82 mM, Agent 2 at 41 mM, Agent 3 at 47 mM

SMILES: C=C(C)C(=O)OCC[Se]C#N [2-selenocyanatoethyl methacrylate]
- log10 reduction of MRSa [1]: > 4.1 log10
- reduction of MRSa [1]: > 99.9%
- log10 reduction of MRSa [2]: > 4.1 log10
- reduction of MRSa [2]: > 99.9%
- log10 reduction of MRSa [3]: > 4.1 log10
- reduction of MRSa [3]: > 99.9%

SMILES: NCC[Se][Se]CCN [Agent 1, selenocystamine dihydrochloride]
- reduction of MRSa (2 hour exposure, room temperature (20° C.), Agent 1 at 82 mM, Agent 2 at 41 mM, Agent 3 at 47 mM, 1.13×10^6 CFU/mL, dihydrochloride): 51.3%
- log10 reduction of MRSa [4]: 0.31 log10
- log10 reduction of MRSa [5]: 0.54 log10
- reduction of MRSa [5]: 71.7%
- log10 reduction of MRSa [6]: 1.004 log10
- reduction of MRSa [6]: 90.1%

SMILES: NCC[Se][Se]CCN [Agent 2, selenocystamine dihydrochloride, reference compound]
- reduction of MRSa [7]: 95.5%
- log10 reduction of MRSa [4]: 1.34 log10
- log10 reduction of MRSa [5]: 1.946 log10
- reduction of MRSa [5]: 98.9%
- log10 reduction of MRSa [6]: 2.024 log10
- reduction of MRSa [6]: 99.1%

SMILES: NCC[Te]CCN [Agent 3, 2,2′-tellurodiethanamine 2 HCl]
- log10 reduction of MRSa (2 hour exposure, room temperature (20° C.), Agent 1 at 82 mM, Agent 2 at 41 mM, Agent 3 at 47 mM): 3.4 log10
- reduction of MRSa [7]: > 99.9%
- log10 reduction of MRSa [8]: > 4.1 log10
- reduction of MRSa [8]: > 99.9%
- log10 reduction of MRSa [9]: > 4.1 log10
- reduction of MRSa [9]: > 99.9%

SMILES: O=[Te]([O-])[O-].[K+].[K+] [Test Substance 1, Potassium tellurite, reference compound]
- reduction of MRSa (all time points (exposure times of 2, 4 and 6 hours), starting ~3-4×10^6 CFU/mL MRSA ATCC 33592): very little to no reduction

Source: patent publication US20080031931A1, “ORGANOTELLURIUM AND SELENIUM-BASED ANTIMICROBIAL FORMULATIONS AND ARTICLES” (Andover Healthcare, Inc., priority 2006, published 2008)
